From ChEMBL document CHEMBL3885861, “Open TG-GATES”

Organism: Rattus norvegicus
Experiment: Open TG-GATES - Regimen: Daily Repeat
Format: toxicity, organism-based, Sprague-Dawley
Set-up: regimen Daily Repeat, gender Male, age 6 weeks
Conditions: in vivo, po, 0 mg/kg, route gavage, dose level Control; for APTT / Bas / Eos / Fbg / Hb / Ht / Lym / MCH / MCHC / MCV / Mono / Neu / PT / Plat / RBC / Ret / WBC: tissue Blood; for KIDNEY_L / KIDNEY_R / KIDNEY_TOTAL: tissue Kidney; for LIVER: tissue Liver; for A/G / ALP / ALT / AST / BUN / CRE / Ca / Cl / DBIL / GLC / IP / K / LDH / Na / PL / RALB / TBIL / TC / TG / TP / gamma-GTP: tissue Plasma

CC1=C(CC(=O)O)c2cc(F)ccc2/C1=C\c1ccc([S+](C)[O-])cc1 (configuration not stated)
TERMINAL_BW (72 h, time 3 day): 233.7 g
APTT (72 h, time 3 day): 16 s
Bas (72 h, time 3 day): 0%
Eos (72 h, time 3 day): 1%
Fbg (72 h, time 3 day): 298.2 mg/dL
Hb (72 h, time 3 day): 14.3 g/dL
Ht (72 h, time 3 day): 42.9%
Lym (72 h, time 3 day): 79%
MCH (72 h, time 3 day): 21.6 pg
MCHC (72 h, time 3 day): 33.3%
MCV (72 h, time 3 day): 64.9 fL
Mono (72 h, time 3 day): 2.2%
Neu (72 h, time 3 day): 17%
PT (72 h, time 3 day): 13.8 s
Plat (72 h, time 3 day): 126.4 x10_4/uL
RBC (72 h, time 3 day): 662.2 x10_4/ul
Ret (72 h, time 3 day): 7.1%
WBC (72 h, time 3 day): 84.9 x10_2/uL
KIDNEY_L (72 h, time 3 day): 1 g
KIDNEY_R (72 h, time 3 day): 1 g
KIDNEY_TOTAL (72 h, time 3 day): 1.9 g
LIVER (72 h, time 3 day): 11.1 g
A/G (72 h, time 3 day): 0.9
ALP (72 h, time 3 day): 1760.4 IU/L
ALT (72 h, time 3 day): 44 IU/L
AST (72 h, time 3 day): 69.4 IU/L
BUN (72 h, time 3 day): 15 mg/dL
CRE (72 h, time 3 day): 0.2 mg/dL
Ca (72 h, time 3 day): 11.2 mg/dL
Cl (72 h, time 3 day): 105.8 meq/L
DBIL (72 h, time 3 day): 0.014 mg/dL
GLC (72 h, time 3 day): 180.6 mg/dL
IP (72 h, time 3 day): 7.5 mg/dL
K (72 h, time 3 day): 4.2 meq/L
LDH (72 h, time 3 day): 73.8 IU/L
Na (72 h, time 3 day): 142 meq/L
PL (72 h, time 3 day): 160.8 mg/dL
RALB (72 h, time 3 day): 2.7 g/dL
TBIL (72 h, time 3 day): 0.02 mg/dL
TC (72 h, time 3 day): 80.4 mg/dL
TG (72 h, time 3 day): 111.6 mg/dL
TP (72 h, time 3 day): 5.6 g/dL
gamma-GTP (72 h, time 3 day): 1 IU/L
TERMINAL_BW ([…], time 7 day): 270.8 g
TERMINAL_BW ([…], time 14 day): 336.8 g
TERMINAL_BW ([…], time 28 day): 383.5 g
APTT ([…], time 7 day): 16.4 s
Bas ([…], time 7 day): 0.2%
Eos ([…], time 7 day): 1%
Fbg ([…], time 7 day): 306.6 mg/dL
Hb ([…], time 7 day): 14.4 g/dL
Ht ([…], time 7 day): 42.3%
Lym ([…], time 7 day): 81.2%
MCH ([…], time 7 day): 21.3 pg
MCHC ([…], time 7 day): 34.1%
MCV ([…], time 7 day): 62.5 fL
Mono ([…], time 7 day): 2.6%
Neu ([…], time 7 day): 14.4%
PT ([…], time 7 day): 13.6 s
Plat ([…], time 7 day): 131.7 x10_4/uL
RBC ([…], time 7 day): 678.6 x10_4/ul
Ret ([…], time 7 day): 5.9%
WBC ([…], time 7 day): 91.7 x10_2/uL
APTT ([…], time 14 day): 17.6 s
Bas ([…], time 14 day): 0.2%
Eos ([…], time 14 day): 1%
Fbg ([…], time 14 day): 299.8 mg/dL
Hb ([…], time 14 day): 15.1 g/dL
Ht ([…], time 14 day): 44.6%
Lym ([…], time 14 day): 76.8%
MCH ([…], time 14 day): 20.9 pg
MCHC ([…], time 14 day): 33.9%
MCV ([…], time 14 day): 61.5 fL
Mono ([…], time 14 day): 2.4%
Neu ([…], time 14 day): 19.6%
PT ([…], time 14 day): 14.2 s
Plat ([…], time 14 day): 124.3 x10_4/uL
RBC ([…], time 14 day): 725.2 x10_4/ul
Ret ([…], time 14 day): 4.3%
WBC ([…], time 14 day): 92.8 x10_2/uL
APTT ([…], time 28 day): 17.9 s
Bas ([…], time 28 day): 0.2%
Eos ([…], time 28 day): 1.8%
Fbg ([…], time 28 day): 282.6 mg/dL
Hb ([…], time 28 day): 15.2 g/dL
Ht ([…], time 28 day): 46.1%
Lym ([…], time 28 day): 79.2%
MCH ([…], time 28 day): 18.9 pg
MCHC ([…], time 28 day): 32.9%
MCV ([…], time 28 day): 57.4 fL
Mono ([…], time 28 day): 1.8%
Neu ([…], time 28 day): 16.2%
PT ([…], time 28 day): 13.2 s
Plat ([…], time 28 day): 109 x10_4/uL
RBC ([…], time 28 day): 802.4 x10_4/ul
Ret ([…], time 28 day): 2.4%
WBC ([…], time 28 day): 108.9 x10_2/uL
KIDNEY_L ([…], time 7 day): 1.1 g
KIDNEY_R ([…], time 7 day): 1.1 g
KIDNEY_TOTAL ([…], time 7 day): 2.1 g
KIDNEY_L ([…], time 14 day): 1.3 g
KIDNEY_R ([…], time 14 day): 1.3 g
KIDNEY_TOTAL ([…], time 14 day): 2.5 g
KIDNEY_L ([…], time 28 day): 1.3 g
KIDNEY_R ([…], time 28 day): 1.3 g
KIDNEY_TOTAL ([…], time 28 day): 2.6 g
LIVER ([…], time 7 day): 12.7 g
LIVER ([…], time 14 day): 14.8 g
LIVER ([…], time 28 day): 14.9 g
A/G ([…], time 7 day): 0.9
ALP ([…], time 7 day): 1662.6 IU/L
ALT ([…], time 7 day): 45.2 IU/L
AST ([…], time 7 day): 69.8 IU/L
BUN ([…], time 7 day): 16.8 mg/dL
CRE ([…], time 7 day): 0.2 mg/dL
Ca ([…], time 7 day): 10.9 mg/dL
Cl ([…], time 7 day): 104.4 meq/L
DBIL ([…], time 7 day): 0.012 mg/dL
GLC ([…], time 7 day): 183 mg/dL
IP ([…], time 7 day): 7.2 mg/dL
K ([…], time 7 day): 4.2 meq/L
LDH ([…], time 7 day): 108.4 IU/L
Na ([…], time 7 day): 140.4 meq/L
PL ([…], time 7 day): 177 mg/dL
RALB ([…], time 7 day): 2.7 g/dL
TBIL ([…], time 7 day): 0.018 mg/dL
TC ([…], time 7 day): 94.2 mg/dL
TG ([…], time 7 day): 120.4 mg/dL
TP ([…], time 7 day): 5.7 g/dL
gamma-GTP ([…], time 7 day): 0.8 IU/L
A/G ([…], time 14 day): 0.9
ALP ([…], time 14 day): 1218 IU/L
ALT ([…], time 14 day): 38.6 IU/L
AST ([…], time 14 day): 66.8 IU/L
BUN ([…], time 14 day): 17.8 mg/dL
CRE ([…], time 14 day): 0.2 mg/dL
Ca ([…], time 14 day): 11.1 mg/dL
Cl ([…], time 14 day): 105.4 meq/L
DBIL ([…], time 14 day): 0.012 mg/dL
GLC ([…], time 14 day): 180 mg/dL
IP ([…], time 14 day): 6 mg/dL
K ([…], time 14 day): 3.8 meq/L
LDH ([…], time 14 day): 65.6 IU/L
Na ([…], time 14 day): 143.6 meq/L
PL ([…], time 14 day): 163.4 mg/dL
RALB ([…], time 14 day): 2.8 g/dL
TBIL ([…], time 14 day): 0.044 mg/dL
TC ([…], time 14 day): 73.2 mg/dL
TG ([…], time 14 day): 175.4 mg/dL
TP ([…], time 14 day): 5.9 g/dL
gamma-GTP ([…], time 14 day): 1 IU/L
A/G ([…], time 28 day): 0.8
ALP ([…], time 28 day): 1152 IU/L
ALT ([…], time 28 day): 35.8 IU/L
AST ([…], time 28 day): 63.6 IU/L
BUN ([…], time 28 day): 16.8 mg/dL
CRE ([…], time 28 day): 0.3 mg/dL
Ca ([…], time 28 day): 10.3 mg/dL
Cl ([…], time 28 day): 105 meq/L
DBIL ([…], time 28 day): 0.012 mg/dL
GLC ([…], time 28 day): 192.2 mg/dL
IP ([…], time 28 day): 6.5 mg/dL
K ([…], time 28 day): 3.6 meq/L
LDH ([…], time 28 day): 82.8 IU/L
Na ([…], time 28 day): 142 meq/L
PL ([…], time 28 day): 128.8 mg/dL
RALB ([…], time 28 day): 2.7 g/dL
TBIL ([…], time 28 day): 0.074 mg/dL
TC ([…], time 28 day): 57.4 mg/dL
TG ([…], time 28 day): 125.6 mg/dL
TP ([…], time 28 day): 6 g/dL
gamma-GTP ([…], time 28 day): 1 IU/L
